Experiments:
Format in all cases: in vivo
[1] = system: Diabrotica balteata (Corn Root Worm); experiment: Example B1: Diabrotica balteata (corn root worm), sprayed maize sprouts on agar, L2 larvae; settings: 96 h, application rate of 200 ppm, 4 days after infestation, in comparison to untreated samples, read-out: effect in at least one of the two categories (mortality or growth inhibition)
Method: Example B1: Diabrotica balteata (Corn Root Worm
Maize sprouts placed onto an agar layer in 24-well microtiter plates were treated with aqueous test solutions prepared from 10′000 ppm DMSO stock solutions by spraying. After drying, the plates were infested with L2 larvae (6 to 10 per well). The samples were assessed for mortality and growth inhibition in comparison to untreated samples 4 days after infestation.

[2] = system: Plutella xylostella (Diamond Back Moth); experiment: Example B4: Plutella xylostella (diamond back moth), treated artificial diet, eggs; settings: 192 h, application rate of 200 ppm, 8 days after infestation, in comparison to untreated samples, read-out: effect in at least one of the two categories (mortality or growth inhibition)
Method: Example B4: Plutella xylostella (Diamond Back Moth
24-well microtiter plates with artificial diet were treated with aqueous test solutions prepared from 10′000 ppm DMSO stock solutions by pipetting. After drying, Plutella eggs were pipetted through a plastic stencil onto a gel blotting paper and the plate was closed with it. The samples were assessed for mortality and growth inhibition in comparison to untreated samples 8 days after infestation.

[3] = system: Spodoptera littoralis (Egyptian Cotton Leaf Worm); experiment: Example B7: Spodoptera littoralis (Egyptian cotton leaf worm), sprayed cotton leaf discs, L1 larvae; settings: foliar, 72 h, application rate of 200 ppm, 3 days after infestation, in comparison to untreated samples
Method: Example B7: Spodoptera littoralis (Egyptian Cotton Leaf Worm
Cotton leaf discs were placed onto agar in 24-well microtiter plates and sprayed with aqueous test solutions prepared from 10′000 ppm DMSO stock solutions. After drying the leaf discs were infested with five L1 larvae. The samples were assessed for mortality, anti-feeding effect, and growth inhibition in comparison to untreated samples 3 days after infestation. Control of Spodoptera littoralis by a test sample is given when at least one of the categories mortality, anti-feedant effect, and growth inhibition is higher than the untreated sample.

Row | SMILES | percent effect (mortality or growth inhibition) at 200 ppm [1] [%] | percent effect (mortality or growth inhibition) at 200 ppm [2] [%] | percent control (mortality, anti-feeding effect or growth inhibition) at 200 ppm [3] [%]
1 | CCS(=O)(=O)c1cc(N(C)C(C)=O)cnc1-c1nc2cc(S(=N)(=O)C(F)(F)F)ccc2o1 (stereo not shown) [P4, N-[5-ethylsulfonyl-6-[5-(trifluoromethylsulfonimidoyl)-1,3-benzoxazol-2-yl]-3-pyridyl]-N-methyl-acetamide] | ≥ 80 | ≥ 80 | ≥ 80
2 | CCN=S(=O)(c1ccc2oc(-c3ncc(-n4ccc(C(F)(F)F)n4)cc3S(=O)(=O)CC)nc2c1)C(F)(F)F (stereo not shown) [P5, ethylimino-[2-[3-ethylsulfonyl-5-[3-(trifluoromethyl)pyrazol-1-yl]-2-pyridyl]-1,3-benzoxazol-5-yl]-oxo-(trifluoromethyl)-λ^6-sulfane] | ≥ 80 | ≥ 80 | 
3 | CCS(=O)(=O)c1cc(-n2ccc(C(F)(F)F)n2)cnc1-c1nc2cc(S(=N)(=O)C(F)(F)F)ccc2o1 (stereo not shown) [P6, [2-[3-ethylsulfonyl-5-[3-(trifluoromethyl)pyrazol-1-yl]-2-pyridyl]-1,3-benzoxazol-5-yl]-imino-oxo-(trifluoromethyl)-λ^6-sulfane] | ≥ 80 | ≥ 80 | ≥ 80
4 | CCS(=O)(=O)c1cccnc1-c1nc2cc(S(=O)(=NCC(F)(F)F)C(F)(F)F)ccc2o1 (stereo not shown) [P14, [2-(3-ethylsulfonyl-2-pyridyl)-1,3-benzoxazol-5-yl]-oxo-(2,2,2-trifluoroethylimino)-(trifluoromethyl)-λ^6-sulfane] | ≥ 80 | ≥ 80 | ≥ 80
5 | CCS(=O)(=O)c1cccnc1-c1nc2cc(S(=O)(=NC#N)C(F)(F)F)ccc2o1 (stereo not shown) [P15, [[2-(3-ethylsulfonyl-2-pyridyl)-1,3-benzoxazol-5-yl]-oxo-(trifluoromethyl)-λ^6-sulfanylidene]cyanamide] | ≥ 80 | ≥ 80 | 
6 | CCS(=O)(=O)c1cc(OCC(F)(F)F)cnc1-c1nc2cc(S(=N)(=O)C(F)(F)F)ccc2o1 (stereo not shown) [P23, [2-[3-ethylsulfonyl-5-(2,2,2-trifluoroethoxy)-2-pyridyl]-1,3-benzoxazol-5-yl]-imino-oxo-(trifluoromethyl)-λ^6-sulfane] | ≥ 80 | ≥ 80 | ≥ 80
7 | CCS(=O)(=O)c1cc(C2(C#N)CC2)cnc1-c1nc2cc(S(=O)(=NCC(F)(F)F)C(F)(F)F)ccc2o1 (stereo not drawn) [P28, 1-[5-ethylsulfonyl-6-[5-[N-(2,2,2-trifluoroethyl)-S-(trifluoromethyl)sulfonimidoyl]-1,3-benzoxazol-2-yl]-3-pyridyl]cyclopropanecarbonitrile] | ≥ 80 | ≥ 80 | ≥ 80
8 | CCN=S(=O)(c1ccc2oc(-c3nc(-n4cncn4)ccc3S(=O)(=O)CC)nc2c1)C(F)(F)F (stereo not shown) [P39, ethylimino-[2-[3-ethylsulfonyl-6-(1,2,4-triazol-1-yl)-2-pyridyl]-1,3-benzoxazol-5-yl]-oxo-(trifluoromethyl)-λ^6-sulfane] | ≥ 80 |  | 
9 | CCS(=O)(=O)c1ccc(-n2cncn2)nc1-c1nc2cc(S(=N)(=O)C(F)(F)F)ccc2o1 (stereo not shown) [P56, [2-[3-ethylsulfonyl-6-(1,2,4-triazol-1-yl)-2-pyridyl]-1,3-benzoxazol-5-yl]-imino-oxo-(trifluoromethyl)-λ^6-sulfane] | ≥ 80 | ≥ 80 | 

From patent publication US12503461B2, “Pesticidally active heterocyclic derivatives with sulfur and sulfoximine containing substituents” (SYNGENTA CROP PROTECTION AG, priority 2019, dated 2025)
